From PubChem BioAssay AID1845202 (Molecular Pharmacology Branch, DTP, NCI, 2023)

Tested on: DMS 114 tumor spheroids, viability % test/control
Assay: Anticancer human tumor DMS 114 cell line growth inhibition;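 further: spheroids exposed to compounds for 7 days before read-out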;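 on viability, T/C: luminescence used as a proxy for viable cells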
Conditions: spheroids with HUVEC and MSC; for IC50: curve of first compound; for viability, T/C: stronger effect = lower value
In short: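 Single agents and combinations were tested on spheroids built from tumor cells plus HUVEC and hMSC, at half-log dilutions starting at or near clinical Cmax, else 10 microM; final DMSO 0.25% (v/v).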

[1] = second compound 1 µM, first compound 0.0316 µM
[2] = second compound 1 µM, first compound 0.1 µM
[3] = second compound 1 µM, first compound 0.316 µM
[4] = second compound 1 µM, first compound 1 µM
[5] = second compound 1 µM, first compound 3.16 µM
[6] = second compound 1 µM, first compound 10 µM
[7] = second compound 3.16 µM, first compound 0.0316 µM
[8] = second compound 3.16 µM, first compound 0.1 µM
[9] = second compound 3.16 µM, first compound 0.316 µM
[10] = second compound 3.16 µM, first compound 1 µM
[11] = second compound 3.16 µM, first compound 3.16 µM
[12] = second compound 3.16 µM, first compound 10 µM
[13] = second compound 10 µM, first compound 0.0316 µM
[14] = second compound 10 µM, first compound 0.1 µM
[15] = second compound 10 µM, first compound 0.316 µM
[16] = second compound 10 µM, first compound 1 µM
[17] = second compound 10 µM, first compound 3.16 µM
[18] = second compound 10 µM, first compound 10 µM
[19] = second compound 31.6 µM, first compound 0.0316 µM
[20] = second compound 31.6 µM, first compound 0.1 µM
[21] = second compound 31.6 µM, first compound 0.316 µM
[22] = second compound 31.6 µM, first compound 1 µM
[23] = second compound 31.6 µM, first compound 3.16 µM
[24] = second compound 31.6 µM, first compound 10 µM
[25] = second compound 100 µM, first compound 0.0316 µM
[26] = second compound 100 µM, first compound 0.1 µM
[27] = second compound 100 µM, first compound 0.316 µM
[28] = second compound 100 µM, first compound 1 µM
[29] = second compound 100 µM, first compound 3.16 µM
[30] = second compound 100 µM, first compound 10 µM

| SMILES | IC50 (second compound 1 µM) | IC50 (second compound 3.16 µM) | IC50 (second compound 10 µM) | IC50 (second compound 31.6 µM) | IC50 (second compound 100 µM) | viability, T/C [1] | viability, T/C [2] | viability, T/C [3] | viability, T/C [4] | viability, T/C [5] | viability, T/C [6] | viability, T/C [7] | viability, T/C [8] | viability, T/C [9] | viability, T/C [10] | viability, T/C [11] | viability, T/C [12] | viability, T/C [13] | viability, T/C [14] | viability, T/C [15] | further results |
| --- | --- | --- | --- | --- | --- | --- | --- | --- | --- | --- | --- | --- | --- | --- | --- | --- | --- | --- | --- | --- | --- |
| CC1COCCN1c1cc(-c2ccnn2C)c2ccnc(-c3ccn[nH]3)c2n1 (stereo not given) + Cn1nnc2c(C(N)=O)ncn2c1=O | 0.0443 µM | 0.0558 µM | 0.0339 µM | < 0.0316 µM | < 0.0316 µM | 56.6% | 33.9% | 22.8% | 11.8% | 10.1% | 10.4% | 63% | 35.4% | 24.9% | 13.2% | 9.36% | 10.9% | 51% | 35.5% | 21.7% | viability, T/C [16]: 11.9%; viability, T/C [17]: 10.2%; viability, T/C [18]: 11.7%; viability, T/C [19]: 36.9%; viability, T/C [20]: 30.3%; viability, T/C [21]: 20.5%; viability, T/C [22]: 13.5%; viability, T/C [23]: 9.89%; viability, T/C [24]: 10.1%; viability, T/C [25]: 24%; viability, T/C [26]: 21.3%; viability, T/C [27]: 16.1%; viability, T/C [28]: 10.8%; viability, T/C [29]: 8.42%; viability, T/C [30]: 10.2% |
| COc1cc(C)[nH]c(=O)c1CN1CCc2c(Cl)cc(C(OC)C3COC3)c(Cl)c2C1=O (stereo not given) + Cn1nnc2c(C(N)=O)ncn2c1=O | > 10 µM | > 10 µM | > 10 µM | > 10 µM | > 10 µM | 103% | 93.3% | 82.7% | 78.4% | 73% | 71% | 109% | 97.1% | 91% | 82.3% | 76.5% | 71.7% | 115% | 99.5% | 93.1% | viability, T/C [16]: 82%; viability, T/C [17]: 80.5%; viability, T/C [18]: 70.1%; viability, T/C [19]: 102%; viability, T/C [20]: 103%; viability, T/C [21]: 86.5%; viability, T/C [22]: 84.2%; viability, T/C [23]: 70.1%; viability, T/C [24]: 67.5%; viability, T/C [25]: 90.7%; viability, T/C [26]: 95.6%; viability, T/C [27]: 73.3%; viability, T/C [28]: 64.3%; viability, T/C [29]: 61.2%; viability, T/C [30]: 57.1% |
| Cc1cc(C)c(CNC(=O)c2cc(-c3ccc(CN4CCOCC4)cc3)cc3c2cnn3C2CCCC2)c(=O)[nH]1 + Cn1nnc2c(C(N)=O)ncn2c1=O | > 10 µM | > 10 µM | > 10 µM | > 10 µM | > 10 µM | 100% | 103% | 104% | 110% | 110% | 64.3% | 110% | 108% | 108% | 114% | 120% | 69.3% | 110% | 106% | 111% | viability, T/C [16]: 115%; viability, T/C [17]: 120%; viability, T/C [18]: 65.9%; viability, T/C [19]: 113%; viability, T/C [20]: 107%; viability, T/C [21]: 109%; viability, T/C [22]: 111%; viability, T/C [23]: 103%; viability, T/C [24]: 65.1%; viability, T/C [25]: 103%; viability, T/C [26]: 103%; viability, T/C [27]: 98.8%; viability, T/C [28]: 90.1%; viability, T/C [29]: 80.4%; viability, T/C [30]: 51.6% |
| [2H]c1nc(C)nc([2H])c1-c1cc(NC[C@@H](C)c2cccc3c(C(=O)NC)ccnc23)ncn1 + Cn1nnc2c(C(N)=O)ncn2c1=O | > 10 µM | > 10 µM | > 10 µM | > 10 µM | > 10 µM | 94.5% | 104% | 98.4% | 99.5% | 97.3% | 98.5% | 108% | 100% | 99.7% | 102% | 99.9% | 101% | 110% | 109% | 98.2% | viability, T/C [16]: 110%; viability, T/C [17]: 95.5%; viability, T/C [18]: 94.8%; viability, T/C [19]: 104%; viability, T/C [20]: 99%; viability, T/C [21]: 113%; viability, T/C [22]: 107%; viability, T/C [23]: 110%; viability, T/C [24]: 95.2%; viability, T/C [25]: 93.3%; viability, T/C [26]: 105%; viability, T/C [27]: 98.3%; viability, T/C [28]: 94.7%; viability, T/C [29]: 84.7%; viability, T/C [30]: 87.6% |
